This is an account of results in patent US8088819B2, “Derivatives of substituted 3-phenyl-1-(phenylthienyl)propan-1-ones and of 3-phenyl-1-(phenylfuranyl) propan-1-ones, preparation and use” (priority 2006, dated 2012).

pEC50: −log10 of the molar value.

The target in data set [1] is T1, hPPARdelta (Homo sapiens, UniProt Q03181).
T1 construct: expressed in transfected cells; host or cells: COS-7 (monkey kidney fibroblasts)
T1 sequence (Q03181 211-439 limits assumed): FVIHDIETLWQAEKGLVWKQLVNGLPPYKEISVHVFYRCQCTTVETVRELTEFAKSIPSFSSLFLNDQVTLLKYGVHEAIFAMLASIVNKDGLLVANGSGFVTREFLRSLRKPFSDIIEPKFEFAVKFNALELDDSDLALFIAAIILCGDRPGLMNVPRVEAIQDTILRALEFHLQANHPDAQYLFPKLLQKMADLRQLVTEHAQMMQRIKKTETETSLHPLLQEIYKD
The data set is described as follows: PPAR activation: Gal4-hPPARδ chimera luciferase transactivation in COS-7 cells, Method 2. The note with it: COS-7, 24 h. The data set is classed as cell-based. In outline:
(§1)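 COS-7 cells were transfected with Gal4-PPAR LBD chimera plus Gal4(RE)_TkpGL3 luciferase reporter (1/10) and seeded serum-free for 4 h. Compounds at 10^−5 to 100 μm were applied for 24 h at 37° C in 1% lipid-free synthetic serum. Luciferase was read after lysis, and EC50 derived.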

Data set [2] has as its target T2, hPPARalpha (Homo sapiens, UniProt Q07869).
T2 construct: expressed in transfected cells; host or cells: COS-7 (monkey kidney fibroblasts)
T2 sequence (Q07869 239-466 limits assumed): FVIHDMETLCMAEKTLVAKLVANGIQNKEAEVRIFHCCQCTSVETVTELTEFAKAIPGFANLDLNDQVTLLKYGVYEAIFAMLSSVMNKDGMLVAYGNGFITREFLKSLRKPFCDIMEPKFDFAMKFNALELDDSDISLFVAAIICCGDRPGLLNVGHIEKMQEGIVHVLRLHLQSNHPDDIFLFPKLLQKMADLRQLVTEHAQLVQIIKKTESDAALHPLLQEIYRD
Description: PPAR activation: Gal4-hPPARα chimera luciferase transactivation in COS-7 cells, Method 2. The note with it: COS-7, 24 h. The data set is classed as cell-based. In outline:
as §1

Data set [3] has as its system target genes of PPARδ in murine myocytes (C2C12). The data set is described as follows: Expression of target genes of PPARδ (PDK4, CPT1b, UCP2, UCP3) in murine myocytes, quantitative RT-PCR. The data set is classed as cell-based. The conditions noted are these: murine myocytes in vitro. From the text: It is established that regulation of the expression of these genes is directly controlled by PPARδ in this cell type. The more the expression of the genes is increased, the greater the stimulating action of the compound according to the invention on metabolism in the muscle cells.
Cells from the murine cell line C2C12 (obtained from ECACC) are cultivated in DMEM medium (Gibco; 41965-039) with addition of 1% L-glutamine (Gibco; 25030), 1% of penicillin/streptomycin (VWR; BWSTL0022/100) and 10% decomplemented fetal calf serum (FCS. Gibco; 10270-106).
The cells are seeded on 24-well plates at a density of 50·10^3 cells/well. At confluence, the medium is replaced with a differentiating medium (basal medium with addition of 2% of horse serum (Gibco; 26050-088)), then incubated at 37° C. and 5% CO2 for 4 days in order to differentiate them to myocytes.
After 5 days of differentiation, the cells are put in a deprivation medium (basal medium without serum) for 6 hours. The cells are then treated with the compounds according to the invention in the deprivation medium. Compounds 2, 4, 7, 11, 39, 40, 46, 49 and 72 were in dose effect, corresponding to 1×, 10× and 100× their EC50 PPARδ. The compounds according to the invention were dissolved in dimethylsulfoxide (DMSO, Sigma; D5879). The cells were treated for 24 h at 37° C., 5% CO2. The effect of the compounds according to the invention was compared with the effect of DMSO alone.
After treatment, the total RNA is extracted from the cells using the NucleoSpine® 96 RNA kit (Macherey Nagel, Hoerdt, France) following the manufacturer's instructions.
1 μg of total RNA (quantified based on the UV spectrophotometer reading) was then reverse-transcribed to complementary DNA by reaction for 1 hour at 37° C. in a total volume of 30 μl containing buffer 1× (Invitrogen), 1.5 mM of DTT, 0.18 mM of dNTPs (Promega), 200 ng of pdN6 (Amersham), 30 U of RNase inhibitor (Promega) and 1 μl of MMLV-RT (Invitrogen).
The quantitative PCR experiments were carried out using the MyiQ Single-Color Real-Time PCR Detection System (Biorad, Marnes-la-Coquette, France) and were performed using the iQ SYBR Green Supermix kit following the supplier's recommendations, in 96-well plates, on 5 μl of diluted reverse-transcription reaction mixtures with a hybridization temperature of 60° C. Primer pairs specific to the PDK4, CPT1b, UCP2 and UCP3 genes under investigation were used:
The amount of fluorescence emitted is directly proportional to the amount of complementary DNA present at the start of the reaction and amplified during PCR. For each target investigated, a range is produced by successive dilutions of a pool constituted of a few microliters of various reverse-transcription reaction mixtures. The relative expression levels of each target are thus determined using the efficacy curves obtained with the points in the range.
The levels of expression of the genes of interest were then normalized relative to the level of expression of the reference gene 36B4 (whose specific primers are: sense primer: 5′-[…]-3′ (SEQ ID No. 19) and antisense primer: 5′-[…]-3′ (SEQ ID No. 20)). The induction factor, i.e. the ratio of the relative signal (induced by the compound according to the invention) to the mean of the relative values of the control group, was then calculated. The higher this factor, the greater the activating character of the compounds according to the invention with respect to gene expression. The final result is represented as the mean of the induction values in each experimental group.

The target in data set [4] is T3, hPPARgamma (Homo sapiens, UniProt P37231).
T3 construct: expressed in transfected cells; host or cells: COS-7 (monkey kidney fibroblasts)
T3 sequence (P37231 238-503 limits assumed): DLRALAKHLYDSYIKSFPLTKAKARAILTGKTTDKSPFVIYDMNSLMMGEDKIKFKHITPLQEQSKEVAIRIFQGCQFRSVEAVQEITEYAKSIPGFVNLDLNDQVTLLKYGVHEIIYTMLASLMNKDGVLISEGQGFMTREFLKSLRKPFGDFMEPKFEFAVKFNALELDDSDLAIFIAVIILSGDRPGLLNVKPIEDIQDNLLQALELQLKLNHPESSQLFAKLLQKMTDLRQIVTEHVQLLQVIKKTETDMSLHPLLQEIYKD
The data set is described as follows: PPAR activation: Gal4-hPPARγ chimera luciferase transactivation in COS-7 cells, Method 2. The data set is classed as cell-based. The note with it: COS-7, 24 h, Method 2. In short, it runs like this:
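Transactivation by a Gal4 DNA-binding domain–hPPARγ ligand-binding domain chimera with a Gal4(RE)-luciferase reporter, transfected into COS-7 cells (plasmid ratio 1/10).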

In general, pEC50 refers to the negative decadic logarithm of the EC50, by convention in mol/L. Broadly, the melting point is the temperature, or range, at which the solid turns liquid. In turn, `COC(CCc1ccc(OC(C)(C)C(=O)O)c(Cl)c1Cl)c1ccc(-c2ccc(C(F)(F)F)cc2)s1` (centres unmarked) [Compound 40, 2-(2,3-dichloro-4-(3-methoxy-3-(5-(4-(trifluoromethyl)phenyl)-thien-2-yl)propyl)phenoxy)-2-methylpropanoic acid] displayed a melting point of 46 to 48 °C. The pEC50 in data set [1] (1% Ultroser) was 8.30. Besides, the Emax in data set [1] (maximum percentage response relative to the reference GW501516, read-out: hPPARdelta % max) is 78.3%. The same compound gave a pEC50 in data set [2] (1% Ultroser) of 6.23. The Emax in data set [2] (maximum percentage response relative to the reference phenofibric acid, read-out: hPPARalpha % max) was 35%. Besides, the “expression of genes involved in carbohydrate and lipid metabolism and in thermoregulation” value in data set [3] is listed as “stimulating effects”. Moreover, the Emax in data set [4] (maximum percentage response relative to the reference rosiglitazone, read-out: hPPARgamma % max) came out at 32%. In data set [4] (1% Ultroser, read-out: hPPARgamma EC50), the pEC50 is 6.00.
